Experimental data from paper PMC10477886, “Adamantaniline Derivatives Target ATP5B to Inhibit Translation of Hypoxia Inducible Factor‐1α” (Advanced Science, 2023).

How the values were obtained:
[1] = toxicity in ICR mice, administering for 1 week; format: in vivo; settings: 100 mg kg^−1 intraperitoneal for 1 week
Experimental: (§1) First, we roughly screened the concentrations in the plasma of seven selected compounds (1‐3n, 1‐3au, 1‐4a, 1‐4k, 1‐4l, 1‐4m, and 1‐4p) at indicated times after intraperitoneal administration in the Institute of Cancer Research (ICR) mice at a dose of 50 mg kg^−1 with two mice per compound, the blood at five different times was collected and the plasma concentration was analyzed finally. […] Besides, we examined the toxicity of HI‐104 in ICR mice by administering for 1 week at a dose of 100 mg kg^−1 by intraperitoneal injection.

[2] = system: MHCC97‐L xenograft tumor; assay: MHCC97‐L xenograft model in nude mice (wildtype and ATP5A/ATP5B knock‐out); format: in vivo
Description: HIF‐1α overexpression is implicated in human hepatocellular carcinoma (HCC).^[ [57] ^] To investigate the biological significance of HI‐104 in the progression of HCC by targeting ATP5A or ATP5B, we performed xenograft models in nude mice with ATP5A or ATP5B stable knock‐out MHCC97‐L cell lines (Figure 6A). The cells were inoculated to 6–8 weeks old nude mice under the armpits, and daily intraperitoneal injection of HI‐104 was started after the tumor volume reached 100 mm^3. Tumor volume and body weight were monitored during the treatment.
MHCC97L wildtype and ATP5A or ATP5B stable knock‐out cells (3 × 10^6) were implanted subcutaneously into the right flanks of 6‐week‐old female BALB/c nude mice. After most of the tumors had reached a threshold size of 100 mm^3, the mice received an intraperitoneal injection of vehicle alone (10% DMSO, 10% Cremophor, and 80% saline, pH 7–8) or HI‐104 over 10 days. The tumor volume was monitored every other day with calipers. After 10 days of treatment or if the mice met humane endpoint criteria, the mice were sacrificed, and tumors were dissected, photographed, and weighed. Tumor tissues were either collected and fixed in 10% neutral‐buffered formalin or snap‐frozen in liquid N2 and stored at −80 °C for subsequent analyses. All animals used in this study were handled in accordance with federal and institutional guidelines under a protocol approved by the Institutional Animal Care and Use Committee at Shanghai Jiao Tong University School of Medicine.

[3] = plasma concentration and pharmacokinetics after intraperitoneal administration in ICR mice; format: in vivo; settings: for concentration in the plasma (rough screen): intraperitoneal 50 mg kg^−1, two mice per compound, five times
Experimental: as §1

[4] = system: HIF‐1α transcriptional activity; assay: dual‐luciferase assay (HRE‐Firefly Luciferase / renilla) of HIF‐1α transcriptional activity in HEK293T cells; format: cell-based, human; settings: for inhibition at 10 µM / IC50: Homo sapiens, HEK-293T, mean ± s.d. (n = 3); for inhibition at 10 µM: incubation 24 h, read-out: Inhibition rate [%] @ 10 µM; for IC50: HEK293T dual‐luciferase
Description: To screen HIF‐1α inhibitors in a robust cell‐based assay, we optimized the dual‐luciferase assay with pLenti‐HIF‐1αP2A (P402A and P564A) instead of pLenti‐HIF‐1α in order to ensure the expression of HIF‐1α under normoxia condition. In the cell‐based assay, HEK293T cells were co‐transfected with pLenti‐HIF‐1αP2A, renilla, and hypoxia‐responsive element (HRE)‐Firefly Luciferase (Figure S1, Supporting Information). […] Three compounds were selected as the positive controls including two inhibitors (PX‐478 2HCl and BAY 87‐2243) and an activator (BAY 85‐3934) in the screening assay.
HEK293T cells were stably transfected with reporter plasmids pGMLV‐HRE‐LUC‐puromycin, pMSCV‐renilla‐hygromycin, and pLenti‐HIF‐1αP2A‐neomycin. Stable cell line constructed above, 293‐HIF‐1αP2A‐HRE‐Fluc‐Rluc, were seeded in 384‐well plates and cultured in DMEM with 10% FBS. The following day, the cells were pretreated with indicated chemical compounds from the National Compound Library of the Shanghai Institute of Materia Medica, Chinese Academy of Sciences by Mosquito HTS. The plate was then placed in an incubator chamber and incubated at 37 °C for 24 h. The ratio of firefly/renilla luciferase activity was determined by using the Envision (PerkinElmer).
Stable cell line 293‐HRE‐Fluc‐Rluc expressed luciferase and renilla or HEK293T cells transfected with indicated plasmids (pGL3‐HRE‐luciferase and pSV40‐renilla) were seeded in a 96‐well plate. The cells were co‐incubated with indicated compounds for 24 h and luciferase activities were detected in Microplate Reader (BioTek SYNEGRY H1) using the Dual Luciferase Reporter Assay System Kit (Promega, USA E1910) according to the manufacturer's instruction. The relative Luc activity was normalized by renilla activity. Three independent experiments were performed, and the calculated means and SDs are presented.

[5] = target: F1‐ATP synthase complex (Sus scrofa, UniProt K7GLT8+P80021); assay: fluorescence polarization binding assay; design: species or system pig
Description: ATP5A and ATP5B are important components of FOF1–ATP synthase, also known as ATP synthase, which is a protein complex that catalyzes ATP synthesis by utilizing energy from the translocation of protons across biological membranes.^[ [40] ^] FOF1‐ATP synthase consists of two domains: the membrane‐spanning domain, FO, which acts as a proton channel, and the soluble catalytic domain, F1, which synthesizes ATP and is composed of nine subunits(α 3 β 3 γδɛ).^[ [41], [42], [43], [44] ^] […] To verify whether HI‐101 targeted ATP5A and ATP5B, we knocked down the subunits of F1 domains separately by shRNA.
F1‐ATPase at indicated concentrations was incubated with HI‐103 (4 nM), bodipy‐1 was as a negative molecule, conduct the experiment after incubating in 96‐well microplates of black polystyrene for 10 min. The FP results were analyzed with GraphPad Prism 9.0.

[6] = system: HIF‐1α protein level; assay: western blot of HIF‐1α protein level in cells; format: cell-based, human; settings: hypoxia
Experimental: Cells were lysed with RIPA lysis (Epizyme, PC101) containing 1% cocktail protease inhibitors (MCE), and protein concentrations were determined by BCA kits (Beyotime, P0012S). Samples were denatured using DS‐PAGE Protein Staining and Loading Buffer (5×) (Beyotime, P0015L) followed by boiling for 10 min at 98 °C then the proteins were fractionated by 10% or 12.5% SDS‐PAGE and transferred to Cellulose Nitrate Membrane Filters (WHATMAN). After blocking in 5% non‐fat milk for 2 h at room temperature, the membrane was incubated overnight with specific antibodies at 4 °C, followed by horseradish peroxidase (HRP)‐linked anti‐mouse or anti‐rabbit secondary antibody (Cell Signaling Technology). Finally, An Immobilon Western Chemiluminescent HRP Substrate Kit (Merck Millipore) was used for protein bands detection. In addition, blots were probed with anti‐β‐actin (Merck, Darmstadt, Germany) antibody as the internal control.

Sequence of F1‐ATP synthase complex (K7GLT8 entry or part of it): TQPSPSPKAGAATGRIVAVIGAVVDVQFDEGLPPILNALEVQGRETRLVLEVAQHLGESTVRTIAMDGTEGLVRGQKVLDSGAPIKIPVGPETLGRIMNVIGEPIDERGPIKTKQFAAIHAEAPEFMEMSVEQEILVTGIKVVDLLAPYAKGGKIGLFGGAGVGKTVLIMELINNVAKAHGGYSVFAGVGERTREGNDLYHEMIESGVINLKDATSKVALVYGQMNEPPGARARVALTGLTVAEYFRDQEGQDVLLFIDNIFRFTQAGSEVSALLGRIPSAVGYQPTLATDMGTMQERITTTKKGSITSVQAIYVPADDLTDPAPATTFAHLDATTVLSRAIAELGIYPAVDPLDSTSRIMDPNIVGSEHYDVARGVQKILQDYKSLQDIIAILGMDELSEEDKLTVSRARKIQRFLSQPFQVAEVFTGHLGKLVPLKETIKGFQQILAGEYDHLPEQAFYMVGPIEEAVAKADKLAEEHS
Sequence of F1‐ATP synthase complex (A0A286ZYL7 entry or part of it, further chain): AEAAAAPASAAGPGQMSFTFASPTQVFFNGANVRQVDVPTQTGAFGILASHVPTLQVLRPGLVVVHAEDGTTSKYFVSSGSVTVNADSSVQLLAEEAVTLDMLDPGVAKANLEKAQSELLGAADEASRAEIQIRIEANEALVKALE
Sequence of F1‐ATP synthase complex (A5GFX4 entry or part of it, further chain): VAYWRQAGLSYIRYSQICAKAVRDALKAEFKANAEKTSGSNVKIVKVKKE
Sequence of F1‐ATP synthase complex (P80021 44-553): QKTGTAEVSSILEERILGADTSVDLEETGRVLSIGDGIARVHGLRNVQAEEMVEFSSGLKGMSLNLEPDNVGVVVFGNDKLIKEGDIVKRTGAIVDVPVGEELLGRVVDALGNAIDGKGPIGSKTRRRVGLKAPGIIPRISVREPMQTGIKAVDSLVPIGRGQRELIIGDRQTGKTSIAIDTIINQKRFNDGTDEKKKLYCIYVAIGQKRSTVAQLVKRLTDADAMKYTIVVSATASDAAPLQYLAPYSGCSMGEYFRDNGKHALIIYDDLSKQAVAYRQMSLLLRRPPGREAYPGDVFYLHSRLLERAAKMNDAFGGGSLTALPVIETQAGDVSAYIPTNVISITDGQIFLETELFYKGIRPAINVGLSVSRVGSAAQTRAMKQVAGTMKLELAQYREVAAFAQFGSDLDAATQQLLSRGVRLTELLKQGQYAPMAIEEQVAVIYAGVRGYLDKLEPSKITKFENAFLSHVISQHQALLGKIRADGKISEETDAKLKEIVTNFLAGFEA

Structure (SMILES) | concentration in the plasma (rough screen) [3] | inhibition at 10 µM ([4]; HEK293T) | IC50 [4] | further results
C[N+](C)(C)CCCC(=O)Nc1ccc(C(=O)Nc2ccc(C34CC5CC(CC(C5)C3)C4)cc2)cc1 [1‐3au, 4‐((4‐((4‐((3r,5r,7r)‐Adamantan‐1‐yl)Phenyl)Carbamoyl)Phenyl)Amino)‐N,N,N‐Trimethyl‐4‐Oxobutan‐1‐Aminium] | high concentration in the plasma | 89.9 ± 1.6% | 1300 ± 300 nM | toxicity (body weight and mental status) [1]: not overtly toxic; tumor growth ([2]; ATP5B KO MHCC97‐L xenograft models): almost had no effect; tumor volume and weight ([2]; wildtype MHCC97‐L xenograft, daily intraperitoneal injection): reduced the tumor volume and weight; body weight ([2]; wildtype MHCC97‐L xenograft, nude mice): tolerant weight loss; AUC ([3]; mouse, ip, intraperitoneal, plasma, read-out: area under the curve (AUC0‐24 h)): 861 µg·h/mL; Cmax ([3]; mouse, ip, intraperitoneal, plasma, read-out: maximum concentration (Cmax)): 91.7 µg/mL; half-life ([3]; mouse, plasma, ip, intraperitoneal): 5.66 h
CC1=CC(C)=[N+]2C1=C(CCCC(=O)Nc1ccc(C(=O)Nc3ccc(C45CC6CC(CC(C6)C4)C5)cc3)cc1)c1c(C)cc(C)n1[B-]2(F)F [1‐3z, N‐(4‐((3r,5r,7r)‐Adamantan‐1‐yl)Phenyl)−4‐(4‐(5,5‐Difluoro‐1,3,7,9‐Tetramethyl‐5H‐4l4,5l4‐Dipyrrolo[1,2‐c:2′,1′‐f][1,3,2]Diazaborinin‐10‐yl)Butanamido)Benzamide] | – | 80.3 ± 1.2% | 2100 ± 500 nM | Kd [5]: 2.6 nM
Cn1cncc1C(=O)Nc1ccc(C23CC4CC(CC(C4)C2)C3)cc1 [1‐4l, N‐(4‐((3r,5r,7r)‐Adamantan‐1‐yl)Phenyl)−1‐Methyl‐1H‐Imidazole‐5‐Carboxamide] | barely detectable in the plasma | 97.8 ± 0.6% | 83 ± 3 nM | –
O=C(Nc1ccc(C23CC4CC(CC(C4)C2)C3)cc1)c1cc[nH]n1 [1‐4m, N‐(4‐((3r,5r,7r)‐Adamantan‐1‐yl)Phenyl)−1H‐Pyrazole‐3‐Carboxamide] | barely detectable in the plasma | 99.8 ± 0.1% | 79 ± 2 nM | –
Nc1ccnc(C(=O)Nc2ccc(C34CC5CC(CC(C5)C3)C4)cc2)c1 [1‐4p, N‐(4‐((3r,5r,7r)‐Adamantan‐1‐yl)Phenyl)−4‐Aminopicolinamide] | barely detectable in the plasma | 99.2 ± 0.1% | 73 ± 2 nM | –
CC[C@H]1/C=C/C=C/C[C@@H](C)[C@H](O)[C@@](C)(O)C(=O)[C@@H](C)[C@H](O)[C@@H](C)C(=O)[C@@H](C)[C@H](O)[C@@H](C)/C=C/C(=O)O[C@@H]2[C@H](C)[C@H](CC1)O[C@]1(CC[C@H](C)[C@H](C[C@@H](C)O)O1)[C@H]2C [Oligomycin, reference compound] | – | – | – | HIF‐1α transcriptional activity (relative luciferase activity), in words ([4]; HEK293T, hypoxia): decreased HIF‐1α transcriptional activity and protein level in a dose‐dependent manner; HIF‐1α protein level [6]: decreased HIF‐1α transcriptional activity and protein level in a dose‐dependent manner
